Consider 1 compound from PMC9054821, “Molecular basis of antibiotic self-resistance in a bee larvae pathogen” (Nature Communications, 2022).

The assay concerns the target T1, PamZ (Paenibacillus larvae, UniProt V9W634).
T1 construct: gene ERIC2_c18030; full length, 275 residues; pET28a(+) N-terminal His6-tag with TEV site, tag cut; E. coli BL21-Gold(DE3); monomer
In words: X-ray crystal structure. As to conditions: 1.34 Å; co-substrate bound to the C-terminal GNAT domain only; crystals at pH 4.6, 293 K. The class given is binding.

T1 sequence (V9W634 entry or part of it): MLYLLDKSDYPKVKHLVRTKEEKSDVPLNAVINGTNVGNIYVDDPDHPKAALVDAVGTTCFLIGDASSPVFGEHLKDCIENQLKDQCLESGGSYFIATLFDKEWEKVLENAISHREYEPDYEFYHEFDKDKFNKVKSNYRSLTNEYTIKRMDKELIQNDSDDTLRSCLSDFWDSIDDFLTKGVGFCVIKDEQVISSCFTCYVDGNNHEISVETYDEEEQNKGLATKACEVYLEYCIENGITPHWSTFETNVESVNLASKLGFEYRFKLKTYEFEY

`CC(=O)SCCNC(=O)CCNC(=O)[C@H](O)C(C)(C)COP(=O)(O)OP(=O)(O)OC[C@H]1O[C@@H](n2cnc3c(N)ncnc32)[C@H](O)[C@@H]1OP(=O)(O)O` [acetyl-CoA]: the X-ray crystal structure entry is “We solved the crystal structure of PamZ in complex with acetyl-CoA”.
